Measurements from patent US11384063B2, “Modulators of estrogen receptor proteolysis and associated methods of use” (Arvinas Operations, Inc., priority 2017, dated 2022).
Read-outs that look alike come from different tables or passages of the source.

How the values were obtained:
ERα [1] = target: T1, ERα (Homo sapiens, UniProt P03372); assay: ERE luciferase reporter gene assay in T47D-KBluc cells (target engagement); type: cell-based; design: T47D human breast cancer cells stably transfected with estrogen responsive element/promoter/luciferase reporter gene; host or cells: T47D-KBluc cells; details: 10% FBS, 24 hours, read-out: ER-α Luciferase IC50
T1 sequence (P03372 1-595): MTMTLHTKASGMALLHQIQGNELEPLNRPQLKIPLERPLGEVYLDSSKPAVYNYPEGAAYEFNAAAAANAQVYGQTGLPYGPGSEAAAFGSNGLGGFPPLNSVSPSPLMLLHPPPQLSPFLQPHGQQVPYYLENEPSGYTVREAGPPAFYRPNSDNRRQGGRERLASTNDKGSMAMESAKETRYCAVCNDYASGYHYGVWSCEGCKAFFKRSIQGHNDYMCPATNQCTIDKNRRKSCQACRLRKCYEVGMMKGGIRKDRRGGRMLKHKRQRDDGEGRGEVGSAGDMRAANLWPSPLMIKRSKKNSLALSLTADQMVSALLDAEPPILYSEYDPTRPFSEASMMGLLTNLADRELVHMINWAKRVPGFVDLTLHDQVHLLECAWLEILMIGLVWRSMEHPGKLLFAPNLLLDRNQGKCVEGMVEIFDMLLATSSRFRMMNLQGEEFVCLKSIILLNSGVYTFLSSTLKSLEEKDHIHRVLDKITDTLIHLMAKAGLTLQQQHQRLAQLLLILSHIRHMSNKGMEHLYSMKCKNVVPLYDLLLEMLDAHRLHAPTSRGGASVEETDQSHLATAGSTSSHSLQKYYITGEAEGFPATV
Summary of the method: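 PROTACs were tested at 12 concentrations from 300 nM down to 2 pM in 3-fold steps for 24 h on T47D-KBluc cells with a stable ERE-driven luciferase. Medium was RPMI with 10% FBS, measured at 10 pM estrogen. IC50 came from luminescence after lysis, in duplicate.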

ERα [2] = target: T1, ERα; assay: Estrogen receptor-alpha (ERα) degradation assay in MCF7 cells using In-Cell Western assay; type: cell-based; design: assessed for their activity in degrading ERα in MCF-7 cells via western blot; endogenous in cells; host or cells: MCF7 cells; details: ER-alpha degradation in MCF7 cells, 5 days of incubation
Procedure: Estrogen Receptor-Alpha (ERα) Degradation Assay Using in-Cell Western™ Assay for Table 5.
Degradation of ERα by claimed compounds were determined in MCF7 cells using an In-Cell Western™ assay. Briefly, MCF7 cells were plated in 96-well plates (2000 cells per well in 100 μl media) and incubated at 37° C. under an atmosphere of 5% CO2 in a humidified incubator overnight. One-hundred (100) μI of media containing test compound (at 2x concentration) was added to the appropriate wells to provide 11 serially decreasing concentrations (top final concentration, 1 μM then 3-fold less for the next 10 concentrations); a vehicle control (DMSO) was also added for each compound. For each experiment, all compounds were assayed on duplicate plates. Cells were then incubated for 3 or 5 days in the above-mentioned environment. The assay was terminated by removal of media, a single wash with ice-cold PBS and the addition of 50 μl paraformaldehyde (PFA: 4% in PBS). After 15 minutes in PFA at room temperature, the cells were permeabilized in Tris-phosphate-buffered saline with Tween (0.1%) (TBST) supplemented with Triton X-100 (0.5%) for 15 minutes. Cells were then blocked in BSA (TBST with BSA, 3%) for one hour. Primary antibodies for the detection of ERa (rabbit monoclonal, 1:1000, Cell Signaling Technology Catalog #8644) and tubulin (mouse monoclonal, 1:5000, Sigma Catalog #T6074) in TBST with BSA (3%) were added. The cells were incubated overnight at 4° C. The cells were then washed thrice with TBST at room temperature and then incubated with anti-rabbit and anti-mouse fluorescently-labelled secondary antibodies (IRDye®; LI-COR; Lincoln, Nebr.) in LI-COR blocking buffer (Catalog #927-50000) for one hour at room temperature. Following 3 washes with TBST, the buffer was removed and the plates were read on an Odyssey® infrared imaging system (LI-COR®, Lincoln, Nebr.) at 700 nm and 800 nm. Using commercial software (ImageStudio™; LI-COR, Lincoln, Nebr.), the staining intensity for ERa and tubulin in each well was quantified and exported for analysis. For each data point, ERa intensity was normalized to tubulin intensity and for each compound all normalized intensity values were normalized to the vehicle control. DC50 and Dmax values were determined following a 4-parameter IC50 curve fit using ACAS dose response module (McNeil & Co Inc.).

[3] = Table 1 cereblon centric PROTACs
[4] = Table 3 cereblon centric PROTACs

With `O=C1CCC(N2Cc3cc(OCCOCCOc4ccc(Oc5c(-c6ccc(Br)cc6)sc6cc(O)ccc56)cc4)ccc3C2=O)C(=O)N1` (stereo not drawn) [Compound 33, 3-[5-[2-[2-[4-[2-(4-bromophenyl)-6-hydroxy-benzothiophen-3-yl]oxyphenoxy]ethoxy]ethoxy]-1-oxo-isoindolin-2-yl]piperidine-2,6-dione] the IC50 (ERα [1]; [3]) was 2.7 nM, the DC50 (ERα [2]) was 1 to 10 nM and the Dmax (ERα [2]) was 50 to 75%.
In the case of `O=C1CCC(N2Cc3cc(CNC(=O)C4CCN(CCOc5ccc(Oc6c(-c7ccc(Br)cc7)sc7cc(O)ccc67)cc5)CC4)ccc3C2=O)C(=O)N1` (stereo not drawn) [Compound 57, 1-(2-(4-(2-(4-bromophenyl)-6-hydroxybenzo[b]thiophen-3-yloxy)phenoxy)ethyl)-N-((2-(2,6-dioxopiperidin-3-yl)-1-oxoisoindolin-5-yl)methyl)piperidine-4-carboxamide], the IC50 (ERα [1]; [3]) is reported as 3 nM, the DC50 (ERα [2]) is reported as 1 to 10 nM and the Dmax (ERα [2]) is reported as 50 to 75%.
`O=C1CCC(N2C(=O)c3ccc(N4CCN(CCCCCOc5ccc(Oc6c(-c7ccc(Br)cc7)sc7cc(O)ccc67)cc5)CC4)cc3C2=O)C(=O)N1` (stereo not drawn) [Compound 61, 5-{4-[5-(4-{[2-(4-bromophenyl)-6-hydroxy-1-benzothiophen-3-yl]oxy}phenoxy)pentyl]piperazin-1-yl}-2-(2,6-dioxopiperidin-3-yl)-2,3-dihydro-1H-isoindole-1,3-dione] gave an IC50 (ERα [1]; [3]) of 18.3 nM, a DC50 (ERα [2]) of 10 to 100 nM and a Dmax (ERα [2]) of 50 to 75%.
`O=C1CCC(N2Cc3cc(NCCCN4CCCN(CCOc5ccc(Oc6c(-c7ccc(Br)cc7)sc7cc(O)ccc67)cc5)CC4)ccc3C2=O)C(=O)N1` (stereo not drawn) [Compound 74, 3-(5-(3-(4-(2-(4-(2-(4-bromophenyl)-6-hydroxybenzo[b]thiophen-3-yloxy)phenoxy)ethyl)-1,4-diazepan-1-yl)propylamino)-1-oxoisoindolin-2-yl)piperidine-2,6-dione] showed an IC50 (ERα [1]; [3]) of 11 nM, a DC50 (ERα [2]) of 1 to 10 nM and a Dmax (ERα [2]) greater than 75%.
In the case of `O=C1CCC(N2Cc3cc(NCCCOCCCOCCOc4ccc(Oc5c(-c6ccc(Br)cc6)sc6cc(O)ccc56)cc4)ccc3C2=O)C(=O)N1` (stereo not drawn) [Compound 89, 3-[5-[3-[3-[2-[4-[2-(4bromophenyl)-6-hydroxy-benzothiophen-3-yl]oxyphenoxy]ethoxy]propoxy]propylamino]-1-oxo-isoindolin-2-yl]piperidine-2,6-dione], the IC50 (ERα [1]; [3]) is reported as 4.8 nM, the DC50 (ERα [2]) is reported as 1 to 10 nM and the Dmax (ERα [2]) is reported as 50 to 75%.
`O=C1CCC(N2Cc3cc(NCCCOCCCOCCCOc4ccc(Oc5c(-c6ccc(Br)cc6)sc6cc(O)ccc56)cc4)ccc3C2=O)C(=O)N1` (stereo not drawn) [Compound 94, 3-[5-[3-[3-[3-[4-[2-(4-bromophenyl)-6-hydroxy-benzothiophen-3-yl]oxyphenoxy]propoxy]propoxy]propylamino]-1-oxo-isoindolin-2-yl]piperidine-2,6-dione] was tested, and the DC50 (ERα [2]) was 1 to 10 nM and the Dmax (ERα [2]) was 50 to 75%.
`O=C1CCC(N2Cc3cc(NCCCOCCOCCOc4ccc(Oc5c(-c6ccc(Br)cc6)sc6cc(O)ccc56)cc4)ccc3C2=O)C(=O)N1` (stereo not drawn) [Compound 95, 3-[5-[3-[2-[2-[4[2-(4-bromophenyl)-6-hydroxy-benzothiophen-3-yl]oxyphenoxy]ethoxy]ethoxy]propylamino]-1-oxo-isoindolin-2-yl]piperidine-2,6-dione] showed a Dmax (ERα [2]) of less than 50%.
`O=C1CCC(N2Cc3cc(NCCCN4CCN(CCOc5ccc(Oc6c(-c7ccc(F)cc7)sc7cc(O)ccc67)cc5)CC4)ccc3C2=O)C(=O)N1` (stereo not drawn) [Compound 174, 3-[5-[3-[4-[2-[4-[2-(4-fluorophenyl)-6-hydroxy-benzothiophen-3-yl]oxyphenoxy]ethyl]piperazin-1-yl]propylamino]-1-oxo-isoindolin-2-yl]piperidine-2,6-dione] gave an IC50 (ERα [1]; [4]) of 0.54 nM, a DC50 (ERα [2]) of less than 1 nM and a Dmax (ERα [2]) greater than 75%.
`O=C1CCC(N2C(=O)c3ccc(NCCCN4CCN(CCOc5ccc(Oc6c(-c7ccc(Br)cc7)sc7cc(O)ccc67)cc5)CC4)cc3C2=O)C(=O)N1` (stereo not drawn) [Compound 177, 5-[3-[4-[2-[4-[2-(4-bromophenyl)-6-hydroxy-benzothiophen-3-yl]oxyphenoxy]ethyl]piperazin-1-yl]propylamino]-2-(2,6-dioxo-3-piperidyl)isoindoline-1,3-dione] gave an IC50 (ERα [1]; [4]) of 2.3 nM, a DC50 (ERα [2]) of 1 to 10 nM and a Dmax (ERα [2]) greater than 75%.
In the case of `O=C1CCC(N2Cc3c(cc(F)c(N4CCN(C5CCN(CCOc6ccc(Oc7c(-c8ccc(C(F)(F)F)cc8)sc8cc(O)ccc78)cc6)CC5)CC4)c3F)C2=O)C(=O)N1` (stereo not drawn) [Compound 203], the IC50 (ERα [1]; [4]) is reported as 4.7 nM.
`O=C1CCC(N2Cc3cc(N4CCN(CC5CCN(CCOc6ccc(Oc7c(-c8ccc(C(F)(F)F)cc8)sc8cc(O)ccc78)cc6)CC5)CC4)c(F)cc3C2=O)C(=O)N1` (stereo not drawn) [Compound 204] was tested, and the IC50 (ERα [1]; [4]) was 16.4 nM.
`O=C1CCC(N2Cc3c(cc(F)c(N4CCN(C5CC6(C5)CN(CCOc5ccc(Oc7c(-c8ccc(C(F)(F)F)cc8)sc8cc(O)ccc78)cc5)C6)CC4)c3F)C2=O)C(=O)N1` (stereo not drawn) [Compound 206] was tested, and the IC50 (ERα [1]; [4]) was 13.3 nM.
`O=C1CCC(N2Cc3cc(N4CCN(CCCOc5ccc(Oc6c(-c7ccc(C(F)(F)F)cc7)sc7cc(O)ccc67)cc5)CC4)ccc3C2=O)C(=O)N1` (stereo not drawn) [Compound 207] gave an IC50 (ERα [1]; [4]) of 11.4 nM.
`O=C1CCC(N2Cc3c(ccc(N4CCN(CCCOc5ccc(Oc6c(-c7ccc(Br)cc7)sc7cc(O)ccc67)cc5)CC4)c3F)C2=O)C(=O)N1` (stereo not drawn) [Compound 208] showed an IC50 (ERα [1]; [4]) of 8.4 nM.
`O=C1CCC(N2C(=O)c3ccc(N4CC(CN5CCC(c6ccc(Oc7c(-c8ccc(Br)cc8)sc8cc(O)ccc78)cc6)CC5)C4)cc3C2=O)C(=O)N1` (stereo not drawn) [Compound 209] was tested, and the IC50 (ERα [1]; [4]) was 2.8 nM.
`O=C1CCC(N2Cc3cc(N4CCN(CCOc5ccc(Oc6c(-c7ccc(Br)cc7)sc7cc(O)ccc67)cc5)CC4)ccc3C2=O)C(=O)N1` (stereo not drawn) [Compound 210] was tested, and the IC50 (ERα [1]; [4]) was 2.3 nM.
With `O=C1CCC(N2C(=O)c3ccc(N4CCN(CCCCc5ccc(Oc6c(-c7ccc(Br)cc7)sc7cc(O)ccc67)cc5)CC4)cc3C2=O)C(=O)N1` (stereo not drawn) [Compound 211] the IC50 (ERα [1]; [4]) was 31.6 nM.
For `O=C1CCC(N2C(=O)c3ccc(N4CCC(N5CC(Oc6ccc(Oc7c(-c8ccc(Br)cc8)sc8cc(O)ccc78)cc6)C5)CC4)cc3C2=O)C(=O)N1` (stereo not drawn) [Compound 212], the IC50 (ERα [1]; [4]) was 15 nM.
`O=C1CCC(N2Cc3cc(N4CCN(CCCOc5ccc(Oc6c(-c7ccc(OC(F)(F)F)cc7)sc7cc(O)ccc67)cc5)CC4)c(F)cc3C2=O)C(=O)N1` (stereo not drawn) [Compound 219] was tested, and the IC50 (ERα [1]; [4]) was 19.1 nM.
For `O=C1CCC(N2Cc3cc(N4CCN(CCCOc5ccc(Oc6c(-c7ccc(Br)cc7)sc7cc(O)ccc67)cc5)CC4)cc(F)c3C2=O)C(=O)N1` (stereo not drawn) [Compound 222], the IC50 (ERα [1]; [4]) was 8.9 nM.
For `O=C1CCC(N2Cc3cc(N4CCC(N5CC(Oc6ccc(Oc7c(-c8ccc(Br)cc8)sc8cc(O)ccc78)cc6)C5)CC4)ccc3C2=O)C(=O)N1` (stereo not drawn) [Compound 233], the IC50 (ERα [1]; [4]) was 2.1 nM.
For `O=C1CCC(N2Cc3cc(N4CC(N5CCC(Oc6ccc(Oc7c(-c8ccc(Br)cc8)sc8cc(O)ccc78)cc6)CC5)C4)ccc3C2=O)C(=O)N1` (stereo not drawn) [Compound 240], the IC50 (ERα [1]; [4]) was 1.2 nM.
`O=C1CCC(N2Cc3cc(N4CC(CN5CCC(c6ccc(Oc7c(-c8ccc(Br)cc8)sc8cc(O)ccc78)cc6)CC5)C4)ccc3C2=O)C(=O)N1` (stereo not drawn) [Compound 241] was tested, and the IC50 (ERα [1]; [4]) was 6.7 nM.
Compound `O=C1CCC(N2Cc3nc(N4CCN(CC5CCN(c6c(F)cc(Oc7c(-c8ccc(Br)cc8)sc8cc(O)ccc78)cc6F)CC5)CC4)ccc3C2=O)C(=O)N1` (stereo not drawn) [Compound 242] has an IC50 (ERα [1]; [4]) of 18.7 nM.
